Test results published in DBAASP.
Values after ≈ are worked out from the molar mass of the structure shown. Blank lines part the entries; values can stand above or below the compound they belong to.

Experiments:
Experiment in all cases: ≥ marks a high value that may be exact or a test limit, other limits are often not marked, values filed in µg/mL are converted to µM
[1] = tested on: Enterococcus faecium E007
[2] = tested on: Staphylococcus aureus ATCC 29231
[3] = tested on: Klebsiella aerogenes ATCC 13048
[4] = tested on: Candida albicans ATCC 10231
[5] = tested on: Pseudomonas aeruginosa PA14
Kluyveromyces marxianus = tested on: Kluyveromyces marxianus
Pachysolen tannophilus = tested on: Pachysolen tannophilus
Micrococcus luteus = tested on: Micrococcus luteus
Aspergillus niger = tested on: Aspergillus niger
[6] = tested on: Escherichia coli ATCC 25922
Trichoderma harzianum = tested on: Trichoderma harzianum
Candida albicans = tested on: Candida albicans
[7] = tested on: Staphylococcus aureus ATCC 6538P
[8] = tested on: Pseudomonas aeruginosa ATCC 27853
[9] = tested on: Staphylococcus aureus ATCC 49476
Staphylococcus aureus MR = tested on: Staphylococcus aureus MR
[10] = tested on: Staphylococcus aureus MW2
[11] = tested on: Acinetobacter baumannii ATCC 7978
[12] = tested on: Xanthomonas axonopodis pv. phaseoli
Staphylococcus aureus 15 = tested on: Staphylococcus aureus 15
Klebsiella pneumoniae M6 = tested on: Klebsiella pneumoniae M6
[13] = tested on: Acinetobacter baumannii AYE
[14] = tested on: Pseudomonas aeruginosa PAO1
[15] = tested on: Escherichia coli CFI_160_KPC2
[16] = tested on: Enterococcus faecalis NCTC 12201
Acinetobacter baumannii = tested on: Acinetobacter baumannii
Escherichia coli 319238 = tested on: Escherichia coli 319238
[17] = tested on: Escherichia coli NCTC 12923
[18] = tested on: Enterococcus faecalis NCTC 775
[19] = tested on: Pseudomonas syringae pv. tomato
[20] = tested on: Klebsiella pneumoniae NCTC 13368
Escherichia coli LEC 001 = tested on: Escherichia coli LEC 001
[21] = tested on: Acinetobacter baumannii ATCC 17987
[22] = tested on: Enterococcus faecalis NCTC 12204
[23] = tested on: Pseudomonas aeruginosa NCTC 13437
[24] = tested on: Acinetobacter baumannii NCTC 13302
[25] = tested on: Escherichia coli CFI_161_NDM
[26] = tested on: Acinetobacter baylyi ADP1
[27] = tested on: Staphylococcus aureus NCTC 9144
[28] = tested on: Acinetobacter baumannii NCTC 13424
[29] = tested on: Staphylococcus aureus ATCC 25923
[30] = tested on: Saccharomyces cerevisiae AS2.430

- MIC [1]: ≥ 56.7 µM
- MIC [2]: 7.09 µM (≈ 16 µg/mL)
- MIC [3]: 28.4 µM (≈ 64 µg/mL)
- MIC [4]: 14.2 µM (≈ 32 µg/mL)
- MIC [5]: 14.2 µM (≈ 32 µg/mL)
SMILES: CC[C@H](C)[C@H](NC(=O)[C@H](CCCCN)NC(=O)[C@H](CCCCN)NC(=O)[C@H](Cc1c[nH]c2ccccc12)NC(=O)[C@@H](NC(=O)[C@H](CCCCN)NC(=O)[C@H](Cc1c[nH]c2ccccc12)NC(=O)[C@@H](N)CC(C)C)[C@@H](C)CC)C(=O)N[C@@H](Cc1c[nH]c2ccccc12)C(=O)N[C@@H](CCCN=C(N)N)C(=O)N[C@H](C(=O)NCC(=O)N[C@@H](Cc1c[nH]c2ccccc12)C(=O)N[C@@H](CC(N)=O)C(=O)N[C@@H](Cc1c[nH]c2ccccc12)C(=O)N[C@@H](CCCN=C(N)N)C(=O)O)C(C)C [LWKIWKKIWRVGWNWR]

- MIC (Kluyveromyces marxianus): 2.9 µM (≈ 14.3 µg/mL)
- MIC (Pachysolen tannophilus): 2.9 µM (≈ 14.3 µg/mL)
- MIC (Micrococcus luteus): 1.9 µM (≈ 9.39 µg/mL)
- MIC (Aspergillus niger): 2.9 µM (≈ 14.3 µg/mL)
- MIC [6]: 1 µM (≈ 4.94 µg/mL)
- MIC (Trichoderma harzianum): 2.9 µM (≈ 14.3 µg/mL)
- MIC (Candida albicans): 2.9 µM (≈ 14.3 µg/mL)
- MIC [7]: 8 µM (≈ 39.5 µg/mL)
SMILES: CC[C@H](C)[C@H](NC(=O)[C@H](CC(C)C)NC(=O)[C@H](CCCCN)NC(=O)[C@@H](N)CC(=O)O)C(=O)NCC(=O)N[C@@H](CO)C(=O)N[C@H]1CSSC[C@@H]2NC(=O)[C@H](Cc3cnc[nH]3)NC(=O)CNC(=O)CNC(=O)[C@H](CCCCN)NC(=O)[C@H](Cc3ccc(O)cc3)NC(=O)CNC(=O)[C@H](CCCN=C(N)N)NC(=O)[C@H](CCCN=C(N)N)NC(=O)[C@H](CCCCN)NC(=O)[C@@H]3CSSC[C@@H](C(=O)N[C@@H](CCC(=O)O)C(=O)N[C@@H](CCC(=O)O)C(=O)O)NC(=O)[C@H](Cc4c[nH]c5ccccc45)NC(=O)[C@H](CSSC[C@H](NC(=O)[C@H](CC(=O)O)NC(=O)[C@H](CO)NC(=O)[C@H]([C@@H](C)O)NC(=O)[C@H](Cc4ccc(O)cc4)NC(=O)[C@H](CC(N)=O)NC(=O)[C@H]([C@@H](C)O)NC(=O)[C@H](C)NC(=O)CNC(=O)[C@H](Cc4c[nH]c5ccccc45)NC(=O)[C@H](C(C)C)NC1=O)C(=O)N[C@@H](CC(N)=O)C(=O)N[C@@H](C)C(=O)N[C@@H](CCC(=O)O)C(=O)N3)NC(=O)[C@H](CC(N)=O)NC(=O)[C@H](C(C)C)NC(=O)[C@H](CC(N)=O)NC(=O)[C@H](Cc1c[nH]c3ccccc13)NC(=O)[C@H](Cc1ccccc1)NC(=O)[C@H](CO)NC(=O)CNC2=O [DKLIGSCVWGATNYTSDCNAECKRRGYKGGHCGSFWNVNCWCEE]

- MIC [8]: > 217 µM
- MIC [9]: 27.2 µM (≈ 64 µg/mL)
- MIC (Candida albicans): 54.3 µM (≈ 128 µg/mL)
- MIC (Staphylococcus aureus MR): ≥ 109 µM
SMILES: CC[C@H](C)[C@H](NC(=O)[C@H](C)NC(=O)[C@H](CCCCN)NC(=O)CNC(=O)[C@H](C)NC(=O)[C@H](CO)NC(=O)[C@H](Cc1ccccc1)NC(=O)[C@H](CC(C)C)NC(=O)CNC(=O)CNC(=O)[C@@H](NC(=O)[C@@H](NC(=O)[C@H](Cc1cnc[nH]1)NC(=O)[C@H](Cc1cnc[nH]1)NC(=O)[C@@H](NC(=O)[C@@H](N)Cc1ccccc1)[C@@H](C)CC)[C@@H](C)CC)[C@@H](C)CC)C(=O)N[C@@H](Cc1cnc[nH]1)C(=O)N[C@@H](CCCN=C(N)N)C(=O)N[C@@H](CC(C)C)C(=O)N[C@H](C(=O)N[C@@H](CCCN=C(N)N)C(=O)O)[C@@H](C)CC [FIHHIIGGLFSAGKAIHRLIR]

- MIC [10]: 28.6 µM (≈ 64 µg/mL)
- MIC [2]: 14.3 µM (≈ 32 µg/mL)
- MIC [11]: ≥ 57.2 µM
- MIC [3]: ≥ 57.2 µM
- MIC [4]: 28.6 µM (≈ 64 µg/mL)
SMILES: CC[C@H](C)[C@H](NC(=O)[C@H](CCCCN)NC(=O)[C@H](CCCCN)NC(=O)[C@H](CC(C)C)NC(=O)[C@@H](NC(=O)[C@H](CCCCN)NC(=O)[C@H](Cc1c[nH]c2ccccc12)NC(=O)[C@@H](N)CC(C)C)[C@@H](C)CC)C(=O)N[C@@H](Cc1c[nH]c2ccccc12)C(=O)N[C@@H](CCCN=C(N)N)C(=O)N[C@H](C(=O)N[C@@H](CC(C)C)C(=O)N[C@@H](Cc1c[nH]c2ccccc12)C(=O)N[C@@H](CC(N)=O)C(=O)N[C@@H](Cc1c[nH]c2ccccc12)C(=O)N[C@@H](CCCN=C(N)N)C(=O)O)C(C)C [LWKILKKIWRVLWNWR]

- MIC [12]: 0.164 µM (≈ 0.5 µg/mL)
- MIC (Staphylococcus aureus 15): ≥ 42 µM
- MIC (Klebsiella pneumoniae M6): 21 µM (≈ 64 µg/mL)
- MIC [13]: 0.656 µM (≈ 2 µg/mL)
- MIC [14]: 42 µM (≈ 128 µg/mL)
- MIC [15]: 2.62 µM (≈ 8 µg/mL)
- MIC [16]: ≥ 42 µM
- MIC (Acinetobacter baumannii): 0.656 µM (≈ 2 µg/mL)
- MIC (Escherichia coli 319238): 5.24 µM (≈ 16 µg/mL)
- MIC [17]: 0.656 µM (≈ 2 µg/mL)
- MIC [18]: ≥ 42 µM
- MIC [19]: 0.328 µM (≈ 1 µg/mL)
- MIC [20]: ≥ 42 µM
- MIC (Escherichia coli LEC 001): 5.24 µM (≈ 16 µg/mL)
- MIC [21]: 2.62 µM (≈ 8 µg/mL)
- MIC [22]: 21 µM (≈ 64 µg/mL)
- MIC [23]: ≥ 42 µM
- MIC [24]: 0.656 µM (≈ 2 µg/mL)
- MIC [25]: 1.31 µM (≈ 4 µg/mL)
- MIC [26]: 1.31 µM (≈ 4 µg/mL)
- MIC [27]: 10.5 µM (≈ 32 µg/mL)
- MIC [28]: 5.24 µM (≈ 16 µg/mL)
SMILES: CC[C@H](C)[C@H](NC(=O)[C@H](CCCCN)NC(=O)[C@H](CCC(=O)O)NC(=O)[C@H](CCCCN)NC(=O)CNC(=O)[C@H](C)N)C(=O)N[C@@H](CCCN=C(N)N)C(=O)N[C@@H](CCCCN)C(=O)N[C@@H](CCCCN)C(=O)N[C@@H](CC(C)C)C(=O)N[C@@H](CCCCN)C(=O)N[C@@H](CC(N)=O)C(=O)N[C@@H](CCC(=O)O)C(=O)N[C@H](C(=O)N[C@@H](CCCCN)C(=O)N[C@@H](CCCCN)C(=O)N[C@@H](CCCCN)C(=O)N[C@@H](Cc1c[nH]c2ccccc12)C(=O)N[C@@H](CCCN=C(N)N)C(=O)N[C@@H](CCCCN)C(=O)N[C@@H](C)C(=O)N[C@H](C(=O)N[C@H](C(=O)N[C@@H](C)C(=O)N[C@@H](Cc1c[nH]c2ccccc12)C(=O)O)[C@@H](C)CC)C(C)C)[C@@H](C)CC [AGKEKIRKKLKNEIKKKWRKAVIAW]

- MIC [29]: 211 µM (≈ 313 µg/mL)
- MIC [6]: 211 µM (≈ 313 µg/mL)
- MIC [30]: ≥ 6.75 mM
SMILES: CC(C)C[C@H](NC(=O)[C@H](CO)NC(=O)CNC(=O)[C@H](CCC(=O)O)NC(=O)[C@H](CC(C)C)NC(=O)[C@H](CCC(=O)O)NC(=O)[C@H](C)NC(=O)[C@H](CCC(N)=O)NC(=O)[C@H](CO)NC(=O)[C@H](CCC(=O)O)NC(=O)[C@H](CCC(=O)O)NC(=O)[C@@H](N)Cc1ccc(O)cc1)C(=O)N[C@@H](CCCCN)C(=O)O [YEESQAELEGSLK]
